The values that follow are results of earlier work, collected in patent US20190011434A1, “METHODS TO DETERMINE CANCER TREATMENT USING ROBOTIC HIGH-THROUGHPUT DRUG SENSITIVITY TESTING” (AntiCancer, Inc., priority 2017, published 2019).

In data set [1] the test system is head and neck squamous cell carcinoma (HNSCC) tumor specimens. As to conditions: 41 evaluated tumors; cisplatin 15 microg/mL or 5-fluorouracil 40 microg/mL; sensitivity = inhibition rate greater than 30%.
In data set [2] the test system is primary tumor and axillary lymph node metastasis from breast cancer patients. Conditions: 30 patients; cutoff drug concentrations; 7 days incubation; p<0.05.

With `O=c1[nH]cc(F)c(=O)[nH]1` [5-fluorouracil], in data set [1], the “Resistance in the HDRA (share of cases)” value is 32%. Moreover, the “Chemosensitivity of lymph node metastases compared with primary tumor” value (“Chemosensitivity … compared with primary tumor” below) in data set [2] is on record as “more resistant than the primary tumor”.
Regarding `COc1cccc2c1C(=O)c1c(O)c3c(c(O)c1C2=O)C[C@@](O)(C(=O)CO)C[C@@H]3O[C@H]1C[C@H](N)[C@H](O)[C@H](C)O1` [DOX, doxorubicin], in data set [2], the “Chemosensitivity … compared with primary tumor” value was “more resistant than the primary tumor”.
`CO[C@@]12[C@H](COC(N)=O)C3=C(C(=O)C(C)=C(N)C3=O)N1C[C@@H]1N[C@@H]12` [MMC, mitomycin C]: the “Chemosensitivity … compared with primary tumor” value in data set [2] is “more resistant than the primary tumor”.
Consider `N.N.[Cl][Pt][Cl]` [cisplatinum], for which the “Resistance in the HDRA (share of cases)” value in data set [1] was 32%. For the same molecule, the “Chemosensitivity … compared with primary tumor” value in data set [2] is “not”.
